# Data taken from patent US20230348415A1, “BISPECIFIC ANTAGONISTS OF RETINOL-BINDING PROTEIN 4 THAT STABILIZE TRANSTHYRETIN TETRAMERS, THEIR PREPARATION, AND USE IN THE TREATMENT OF COMMON AGE-RELATED COMORBIDITIES” (The Trustees of Columbia University in the City of New York, priority 2020, published 2023).
# Entries after “also recorded” stand apart in the source; their conditions may differ.
# How the values were obtained:
# [1] = molecular target: RBP4-TTR interaction (Homo sapiens (Human), UniProt P02753); experiment: HTRF RBP4-TTR interaction assay; assay type: biochemical; conditions: 1 μM retinol; read-out: RBP4-TTR HTRF IC50
# Protocol: HTRF Cryptate labeling kit from CisBio (Cisbio, cat #62EUSPEA, Bedfored, MA) was used to label TTR with Eu^3+ Cryptate. The assay was performed in a final assay volume of 16 μl in the buffer that contained 10 mM Tris-HCl pH 7.5, 1 mM DTT, 0.05% NP-40, 0.05% Prionex, 6% glycerol, and 400 mM KF. […] All of the reactions were performed under dim red light in the dark. The plates were read in the SpectraMax M5e Multimode Plate Reader (Molecular Devices, Sunnyvale, CA) after the overnight incubation at 4° C. […] The HTRF signal was expressed as the ratio of fluorescence intensity: Flu668/Flu620×10,000.
# [2] = system: Abca4−/−/Rdh8−/− mice; experiment: A2E accumulation in eyes of Abca4−/−/Rdh8−/− mice; assay type: in vivo, mouse; conditions: 25 mg/kg daily in chow, 10 weeks, eyecups, HPLC
# From the text: FIG. 10. Effect of the long-term oral (±)-44 administration on the level of the lipofuscin fluorophore A2E in eyes of the Abca4^−/−/Rdh8^−/− mice. Bisretinoids were extracted from the eyecups of vehicle-treated wild type mice (circles), vehicle-treated Abca4^−/−/Rdh8^−/− knockout mice (squares), and (±)-44-treated Abca4^−/−/Rdh8^−/− mice (triangles) after 10 weeks of dosing and analyzed by HPLC. A significant 77% reduction in A2E concentration was detected in (±)-44-treated Abca4^−/−/Rdh8^−/− mice compared with vehicle-treated double-knockout controls; one-way ANOVA with Holm-Sidak post hoc test, p<0.0001 (****).
# (±)-44 was formulated into a Picolab 5053 chow to ensure a daily dosing of 25 mg/kg of (±)-44. Long-term 10-week dosing of the compound formulated into a chow was conducted in Abca4^−/−/Rdh8^−/− mice. The age-matched control group of wild-type C57BL/6J mice was kept on a standard Picolab 5053 chow. The age-matched reference group of mice was used for defining the basal level of A2E in mice in the absence of the Abca4 and Rdh8 ablation. […] Following the 10 weeks of dosing, the eyecups of treated and untreated Abca4^−/−/Rdh8^−/− mice as well as the eyecups of the reference wild type mice were collected for the quantitative A2E analysis.
# [3] = molecular target: T1, TTR (Homo sapiens (Human), UniProt P02766); experiment: Acid-induced TTR aggregation assay; assay type: biochemical; conditions: 50 μM compound, pH 4.0, 72 h, 37° C.
# Protocol: FIG. 6. […] After incubation in the presence of 50 μM Tafamidis, 50 μM Benzbromarone and 50 μM (±)-44, samples were crosslinked and subjected to SDS-PAGE followed by western blotting with TTR antibodies. The representative blot of at least three independent experiments is presented. (B, C), Bar graphs represent pixel volumes of TTR high molecular weight aggregates (B) and monomers (C). The vertical axes represent the ratio of pixel volume means±S.D. of the scanned bands on the immunoblots in arbitrary units. Statistical significance was determined by one-way ANOVA with Holm-Sidak post hoc test; *, p≤0.05; **, p≤0.01; ***, p≤0.001; ****, p≤0.0001 compare to TTR aggregation (pH 4.0)+DMSO group, #, p≤0.05; ##, p≤0.01; ###, p≤0.001; ####, p≤0.0001 compare to TTR without aggregation (pH 7.5) group.
# The ability of test compounds to prevent TTR aggregation was evaluated under the acidic conditions that favor TTR aggregation and fibril formation. […] At the end of the incubation, 3.5 μl 500 mM sodium phosphate (Sigma #S5136) buffer pH=8.0 was added to each sample for neutralization and 0.6 μl 5% CHAPS (Sigma #C5070) as a detergent to prevent reassociation of protein. The cross-linking was performed by adding 1.5 μl 5% glutaraldehyde solution (Sigma #G6257). After 4 min, the reaction was stopped by the addition of 2.5 μl freshly made 5% NaBH4. Samples were subjected to TTR western blotting with prealbumin antibodies (1:500; Dako #A0002). Band intensity for TTR monomer and TTR aggregates was quantified from scanned images of the blots.
# [4] = molecular target: T1, TTR; experiment: biochemical; assay type: binding; conditions: FITC-coupled TTR FP probe; read-out: TTR FP IC50
# Protocol: Compound binding to TTR was assessed in the fluorescence polarization assay. […] Each well contained 200 nM TTR and 100 nM FITC-diclofenac in the FP buffer (10 mM Tris-HCl pH 7.5, 150 mM NaCl, 0.01% CHAPS, 0.01% Prionex) along with test compounds. Nonspecific binding was determined in the presence of 500 μM unlabeled diclofenac (Sigma-Aldrich). Reactions with test compounds were incubated overnight at 4° C. and FP was measured on SpectramaxM5e plate reader (Molecular Devices).
# [5] = Plasma protein binding, rat plasma; assay type: in vitro ADME; conditions: Sprague Dawley, pH 7.4, read-out: % PPB, R (converted)
# Protocol: (§1) Plasma protein binding (PPB) for compounds determination for compound (±)-44 in PBS (pH 7.4) was conducted by Eurofins using equilibrium dialysis of plasma with HPLC-UV/Vis detection.
# (§2) The peak areas of the test compound in the buffer and test samples were used to calculate percent binding and recovery according to the following formulas:
# (§3) • Areap=Peak area of analyte in protein matrix • Areab=Peak area of analyte in buffer • Areac=Peak area of analyte in control sample
# [6] = Plasma protein binding, human plasma; assay type: in vitro ADME; conditions: pH 7.4, read-out: % PPB, H (converted)
# Protocol: as §1, §2, §3
compound,measurement,setting,value
"Cc1cc(C(=O)O)nc(N2CCC(COc3ccccc3C(F)(F)F)C2)n1 (racemic) [Compound (±)-44, (±)-6-Methyl-2-(3-((2-(trifluoromethyl)phenoxy)methyl)pyrrolidin-1-yl)pyrimidine-4-carboxylic Acid]",IC50,[1],0.25 µM
same,reduction in A2E concentration vs vehicle-treated Abca4−/−/Rdh8−/− mice,[2],77%
same,formation of high molecular weight TTR species,[3],reduces the formation of high molecular weight TTR forms; also recorded: significantly reduced the formation of high molecular weight TTR species
same,TTR monomer band intensities,[3]; vs DMSO,Significant increase
same,fold reduction in formation of high molecular weight aggregates,[3]; vs DMSO,4.7 fold
same,IC50,[4],2.85 µM
same,fraction unbound,[5],0.04
same,fraction unbound,[6],0.002
